These are literature values, as cited in patent US20050282838A1, “Compounds, compositions, and methods” (priority 2003, published 2005).

Broadly, the GI50 is the concentration giving 50% growth inhibition.

The series concerns A549 cells. Particulars: data provided by National Cancer Institute.

In the case of `O=c1[nH]cc(F)c(=O)[nH]1` [5-fluorouracil], the GI50 is 1 µM.
For the compound `COc1cccc2c1C(=O)c1c(O)c3c(c(O)c1C2=O)C[C@@](O)(C(=O)CO)C[C@@H]3O[C@H]1C[C@H](N)[C@H](O)[C@H](C)O1` [doxorubicin], the GI50 is 0.063 µM.
On to `NC(=O)NO` [hydroxyurea], for which the GI50 is 500 µM.
For the compound `CC(=O)O[C@H]1C(=O)[C@@]2(C)[C@H]([C@H](OC(=O)c3ccccc3)[C@]3(O)C[C@H](OC(=O)[C@H](O)[C@@H](NC(=O)c4ccccc4)c4ccccc4)C(C)=C1C3(C)C)[C@]1(OC(C)=O)CO[C@@H]1C[C@@H]2O` [paclitaxel], the GI50 is 0.004 µM.
